This assay has as its target Synaptic vesicular amine transporter (Rattus norvegicus, UniProt Q01827). Put plainly: Inhibition of VMAT2-mediated [3H]-dopamine uptake in rat striata isolated synaptic vesicles by liquid scintillation spectroscopy.

Among the data in ChEMBL document CHEMBL2440070, “Synthesis and evaluation of novel azetidine analogs as potent inhibitors of vesicular [3H]dopamine uptake” (Bioorg Med Chem, 2013) are Ki values, retold here.

Chain of Synaptic vesicular amine transporter (Q01827 whole entry): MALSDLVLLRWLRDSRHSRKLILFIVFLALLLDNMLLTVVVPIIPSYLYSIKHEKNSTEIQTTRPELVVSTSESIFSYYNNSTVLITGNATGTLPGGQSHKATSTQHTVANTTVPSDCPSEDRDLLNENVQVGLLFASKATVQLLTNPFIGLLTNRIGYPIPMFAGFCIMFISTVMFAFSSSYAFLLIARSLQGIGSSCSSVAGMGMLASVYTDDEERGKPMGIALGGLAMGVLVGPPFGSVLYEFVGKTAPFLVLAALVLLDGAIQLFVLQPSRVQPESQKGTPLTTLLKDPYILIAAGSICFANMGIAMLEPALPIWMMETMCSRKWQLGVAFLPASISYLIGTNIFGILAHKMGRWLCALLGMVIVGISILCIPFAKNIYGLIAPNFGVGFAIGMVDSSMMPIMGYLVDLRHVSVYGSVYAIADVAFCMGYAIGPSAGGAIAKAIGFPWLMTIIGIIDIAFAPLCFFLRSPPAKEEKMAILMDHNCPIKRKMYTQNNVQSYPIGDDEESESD

A word on the Ki: it is the dissociation constant of the complex between target and ligand, obtained from inhibition or displacement. `c1ccc(CC[C@H]2CCC[C@@H](CCc3ccccc3)N2)cc1` showed a Ki of 43 nM.
As for `c1ccc(CC[C@@H]2C[C@H](CCc3ccccc3)N2)cc1`, affinity was put at a Ki of 62 nM. This Ki and that of the compound before are within 1.5-fold of each other.
Regarding `COc1ccc(CC[C@@H]2C[C@H](CCc3ccc(OC)cc3)N2)cc1`, the Ki is 24 nM.
In turn, `c1cc2c(cc1CC[C@@H]1C[C@H](CCc3ccc4c(c3)OCO4)N1)OCO2` came in with a Ki of 55 nM.
For `c1ccc(CC[C@@H]2C[C@@H](CCc3ccccc3)N2)cc1` (racemic), affinity was put at a Ki of 48 nM.
Take `COc1ccc(CC[C@@H]2C[C@@H](CCc3ccc(OC)cc3)N2)cc1` (racemic): the Ki is 66 nM. The Ki values of the last two compounds are within 1.5-fold of each other.
On to `c1cc2c(cc1CC[C@@H]1C[C@@H](CCc3ccc4c(c3)OCO4)N1)OCO2` (racemic), for which the Ki was determined as 31 nM. This Ki is about 2.1-fold lower than that of the compound before.
